The values that follow come from patent US8598206B2, “Trypsin-like serine protease inhibitors, and their preparation and use” (The Medicines Company (Leipzig) GmbH, priority 2010, dated 2013).

Where two headings read alike, the source gives them in different places.

For one series, the target named is trypsin. As to conditions: background; cited from earlier work.
For series [1] the following is noted: cited from earlier work.
Series [2] addresses T1, plasmin (Homo sapiens (Human), UniProt P00747). Put plainly: Determination of inhibition constants for human plasmin (chromogenic substrate). It counts as biochemical. The following applies: 25° C., Chromozym PL substrate; read-out: h plasmin Ki. The procedure: (§1) Determination of the Inhibition Constants for Human Plasmin (h Plasmin) and Human Plasma Kallikrein (h PK)
(§2) The inhibitory effect for the individual enzymes was determined in analogy to a previously disclosed method (Stürzebecher et al., J. Med. Chem., 40, 3091-3099 (1997)).
(§3) 200 μl of TBS (0.05 M trishydroxymethylaminomethane; 0.154 M NaCl, 2% ethanol, pH 8.0)
(§4) 25 μl of substrate (4 mM, 2 mM and 1 mM tosyl-Gly-Pro-Lys-pNA=Chromozym PL from LOXO for plasmin and 3 mM, 1.5 mM and 1 mM H-D-Pro-Phe-Arg-pNA=S2302 from Chromogenix for PK, dissolved in H2O)
(§5) 2 μL of a test compound solution in 50% v/v DMSO/water
(§6) 50 μl of enzyme solution (plasmin from Calbiochem: 1.7 mU/ml in 0.154 M NaCl+0.1% BSA m/v; plasma kallikrein from Enzyme Research Lab.: 62 ng/ml in 0.154 M NaCl+0.1% BSA m/v)
(§7) For zero order kinetics, the reaction was stopped after 20 min by adding 15 μl of acetic acid (80% v/v), and the absorption at 405 nm was determined using a Microplate Reader (Multiscan Ascent™, from Thermo). In the case of pseudo-first order kinetics, the reaction rates in the equilibrium state were determined by continuously recording the change in absorbance at 405 nm. The Ki values were calculated by parameter fitting in accordance with the rate equation for competitive inhibition using the GraFit software, version 4. The Ki values are the average of at least three determinations.
Target sequence in this assay (P00747 581-810): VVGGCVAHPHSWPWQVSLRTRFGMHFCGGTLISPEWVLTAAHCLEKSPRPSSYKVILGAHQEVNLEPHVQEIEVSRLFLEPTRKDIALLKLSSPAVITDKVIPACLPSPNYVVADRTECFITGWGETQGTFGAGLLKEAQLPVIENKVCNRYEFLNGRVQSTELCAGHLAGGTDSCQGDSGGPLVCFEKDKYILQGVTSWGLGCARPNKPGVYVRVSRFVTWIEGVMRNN
Target sequence in this assay (P00747 97-580 partner): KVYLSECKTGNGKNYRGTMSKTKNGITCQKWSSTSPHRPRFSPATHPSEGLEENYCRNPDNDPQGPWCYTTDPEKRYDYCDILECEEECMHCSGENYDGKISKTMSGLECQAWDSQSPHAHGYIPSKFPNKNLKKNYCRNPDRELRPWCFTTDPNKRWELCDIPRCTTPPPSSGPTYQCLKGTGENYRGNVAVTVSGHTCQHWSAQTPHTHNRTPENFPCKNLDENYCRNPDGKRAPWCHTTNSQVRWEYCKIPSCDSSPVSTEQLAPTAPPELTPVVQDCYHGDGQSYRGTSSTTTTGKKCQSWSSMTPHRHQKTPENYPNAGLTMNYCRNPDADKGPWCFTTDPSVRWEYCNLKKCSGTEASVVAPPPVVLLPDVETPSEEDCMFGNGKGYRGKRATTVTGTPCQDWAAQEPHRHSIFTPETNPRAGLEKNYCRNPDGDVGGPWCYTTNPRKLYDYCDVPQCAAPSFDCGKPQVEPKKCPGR

Another series addresses plasma kallikrein (Homo sapiens (Human), UniProt P03952). Description: Determination of inhibition constants for human plasma kallikrein (chromogenic substrate). The following applies: 25° C., S2302 substrate; read-out: h PK Ki. The class given is biochemical. The procedure: as §1, §2, §3, §4, §5, §6, §7
Series [3] concerns the target human activated protein C (Homo sapiens (Human), UniProt P04070). Description: Inhibition of human activated protein C. As to conditions: Pefachrome PCa substrate; read-out: h aPC Ki. It counts as biochemical. The procedure: as §2, §3, §5, §7
A further series has as its target human urinary kallikrein (Homo sapiens (Human), UniProt P06870). Put plainly: Inhibition of human urinary kallikrein. It counts as biochemical. As to conditions: S-2266 substrate; read-out: h uKK Ki. The procedure:
as §2, §3, §5, §7

The target in series [4] is human activated C1s complement component (Homo sapiens (Human), UniProt P09871). Description: Inhibition of human C1s. It counts as biochemical. As to conditions: S2314 substrate; read-out: h C1s Ki. The procedure: as §2, §3, §5, §7
Subcomponent “s” of Human Complement Component 1 (h C1s): Inhibition of human C1s was determined by the method described in [0092]-[0098] using native human activated C1s complement component from Calbiochem at 29 nM and Val-Ser-Arg-pNA (S2314) at 8 mM, 6 mM, and 4 mM as substrate; results are reported as Ki values (nanomolar).

In series [5] the target is human activated C1r complement component (Homo sapiens (Human), UniProt P00736). Description: Inhibition of human C1r. The following applies: S2314 substrate; read-out: h C1r Ki. It counts as biochemical. The procedure: as §2, §3, §5, §7
A further series concerns the target human alpha-thrombin (Homo sapiens (Human), UniProt P00734). Description: Inhibition of human Factor IIa. It counts as biochemical. As to conditions: Pefachrome tPA substrate; read-out: h FIIa Ki. How it is done:
as §2, §3, §5, §7

Another series deals with human Factor Xa (Homo sapiens (Human), UniProt P00742). Description: Inhibition of human Factor Xa. The class given is biochemical. The following applies: Pefachrome FXa substrate; read-out: h FXa Ki. The procedure:
The inhibitory effect for the individual enzymes was determined in analogy to a previously disclosed method (Stürzebecher et al., J. Med. […] In the case of pseudo-first order kinetics, the reaction rates in the equilibrium state were determined by continuously recording the change in absorbance at 405 nm. […] The Ki values are the average of at least three determinations. Human Factor Xa (h FXa): […]

Another series has as its target human Factor XIa (Homo sapiens (Human), UniProt P03951). Put plainly: Inhibition of human Factor XIa. It counts as biochemical. The following applies: Pefachrome PCa substrate; read-out: h FXIa Ki. How it is done: as §2, §3, §5, §7
The target of another series is human alpha-FXIIa (Homo sapiens (Human), UniProt P00748). Put plainly: Inhibition of human alpha-Factor XIIa. The class given is biochemical. The following applies: CHA-Gly-Arg-pNA substrate; read-out: h FXIIa Ki. The procedure: as §2, §3, §5, §7
In another series the target is human t-PA (Homo sapiens (Human), UniProt P00750). Description: Inhibition of human tissue-type plasminogen activator. It counts as biochemical. As to conditions: Pefachrome tPA substrate; read-out: h t-PA Ki. How it is done:
as §2, §3, §5, §7

Series [6] concerns the target T1, plasmin. As to conditions: background literature; read-out: Ki / inhibition constant for plasmin; cited from earlier work.

human alpha-FXIIa, sequence (P00748 373-615): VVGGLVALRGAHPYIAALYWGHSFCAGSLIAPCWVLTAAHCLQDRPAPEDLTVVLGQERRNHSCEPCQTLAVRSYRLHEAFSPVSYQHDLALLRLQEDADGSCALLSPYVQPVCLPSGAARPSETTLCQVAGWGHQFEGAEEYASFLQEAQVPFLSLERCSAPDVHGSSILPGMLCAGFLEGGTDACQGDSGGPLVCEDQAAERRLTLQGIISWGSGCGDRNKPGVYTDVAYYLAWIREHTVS
human alpha-FXIIa, sequence (P00748 20-372 partner): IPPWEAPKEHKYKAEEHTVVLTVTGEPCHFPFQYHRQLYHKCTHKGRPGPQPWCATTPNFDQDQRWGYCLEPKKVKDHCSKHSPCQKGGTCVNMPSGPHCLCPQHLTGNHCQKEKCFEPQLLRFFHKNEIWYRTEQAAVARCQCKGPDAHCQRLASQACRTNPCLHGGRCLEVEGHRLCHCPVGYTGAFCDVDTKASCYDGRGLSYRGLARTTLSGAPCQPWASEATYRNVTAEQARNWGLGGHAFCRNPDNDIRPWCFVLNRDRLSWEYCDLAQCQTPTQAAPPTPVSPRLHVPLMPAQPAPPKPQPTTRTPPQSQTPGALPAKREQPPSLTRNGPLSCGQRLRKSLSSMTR
human Factor XIa, sequence (P03951 388-625): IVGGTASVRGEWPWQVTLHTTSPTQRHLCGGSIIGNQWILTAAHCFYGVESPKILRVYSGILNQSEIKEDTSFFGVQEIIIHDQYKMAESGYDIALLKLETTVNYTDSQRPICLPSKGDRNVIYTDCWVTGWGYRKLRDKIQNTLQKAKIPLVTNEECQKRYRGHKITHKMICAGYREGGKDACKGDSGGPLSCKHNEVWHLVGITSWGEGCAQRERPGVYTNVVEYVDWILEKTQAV
human Factor XIa, sequence (P03951 19-387 partner): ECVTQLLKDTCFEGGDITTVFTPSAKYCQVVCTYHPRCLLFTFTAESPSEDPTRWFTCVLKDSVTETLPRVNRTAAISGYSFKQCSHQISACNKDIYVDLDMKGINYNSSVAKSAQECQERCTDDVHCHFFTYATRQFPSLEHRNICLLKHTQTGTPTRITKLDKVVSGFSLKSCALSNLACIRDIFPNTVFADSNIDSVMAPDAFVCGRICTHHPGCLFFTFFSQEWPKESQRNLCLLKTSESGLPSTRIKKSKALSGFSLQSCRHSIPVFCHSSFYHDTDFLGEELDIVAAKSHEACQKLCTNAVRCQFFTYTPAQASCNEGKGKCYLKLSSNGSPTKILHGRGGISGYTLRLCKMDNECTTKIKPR
human activated protein C, sequence (P04070 212-450): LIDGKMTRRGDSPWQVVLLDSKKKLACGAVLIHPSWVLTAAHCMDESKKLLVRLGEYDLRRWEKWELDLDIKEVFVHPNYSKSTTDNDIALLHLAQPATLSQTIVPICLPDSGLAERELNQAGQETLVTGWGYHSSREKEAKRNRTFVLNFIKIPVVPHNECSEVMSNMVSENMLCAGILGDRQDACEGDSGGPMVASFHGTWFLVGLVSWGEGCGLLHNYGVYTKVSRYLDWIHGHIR
human activated protein C, sequence (P04070 43-197 partner): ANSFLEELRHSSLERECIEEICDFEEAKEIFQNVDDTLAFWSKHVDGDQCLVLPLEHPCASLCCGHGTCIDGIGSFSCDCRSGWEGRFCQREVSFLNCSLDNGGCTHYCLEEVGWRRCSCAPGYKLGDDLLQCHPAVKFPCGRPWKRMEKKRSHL
human activated C1r complement component, sequence (P00736 464-705): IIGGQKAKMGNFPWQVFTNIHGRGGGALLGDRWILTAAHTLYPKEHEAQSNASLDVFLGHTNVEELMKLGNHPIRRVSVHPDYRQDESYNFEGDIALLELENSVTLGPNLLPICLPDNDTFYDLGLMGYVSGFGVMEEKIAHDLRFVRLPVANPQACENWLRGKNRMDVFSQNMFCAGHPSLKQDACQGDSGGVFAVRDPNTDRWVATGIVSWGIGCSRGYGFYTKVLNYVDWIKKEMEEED
human activated C1r complement component, sequence (P00736 18-463 partner): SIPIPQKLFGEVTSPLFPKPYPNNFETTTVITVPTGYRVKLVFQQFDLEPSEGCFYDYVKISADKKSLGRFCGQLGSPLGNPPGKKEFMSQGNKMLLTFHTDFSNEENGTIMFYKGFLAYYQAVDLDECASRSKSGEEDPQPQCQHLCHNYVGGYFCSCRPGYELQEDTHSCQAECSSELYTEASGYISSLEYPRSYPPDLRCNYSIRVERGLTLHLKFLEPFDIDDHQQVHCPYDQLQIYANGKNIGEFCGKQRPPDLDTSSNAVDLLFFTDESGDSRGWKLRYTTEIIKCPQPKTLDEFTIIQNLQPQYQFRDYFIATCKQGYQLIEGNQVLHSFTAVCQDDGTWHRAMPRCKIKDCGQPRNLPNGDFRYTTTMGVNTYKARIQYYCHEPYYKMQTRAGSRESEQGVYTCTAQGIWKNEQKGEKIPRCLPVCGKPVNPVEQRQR
human urinary kallikrein, sequence (P06870 25-262): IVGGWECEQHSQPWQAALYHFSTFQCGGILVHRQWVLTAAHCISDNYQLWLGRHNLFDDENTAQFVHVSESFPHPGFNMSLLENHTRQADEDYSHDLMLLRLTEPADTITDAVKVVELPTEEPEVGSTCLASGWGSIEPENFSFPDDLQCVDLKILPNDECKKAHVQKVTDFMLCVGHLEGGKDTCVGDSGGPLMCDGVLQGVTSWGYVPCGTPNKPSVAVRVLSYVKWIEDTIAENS
plasma kallikrein, sequence (P03952 391-638): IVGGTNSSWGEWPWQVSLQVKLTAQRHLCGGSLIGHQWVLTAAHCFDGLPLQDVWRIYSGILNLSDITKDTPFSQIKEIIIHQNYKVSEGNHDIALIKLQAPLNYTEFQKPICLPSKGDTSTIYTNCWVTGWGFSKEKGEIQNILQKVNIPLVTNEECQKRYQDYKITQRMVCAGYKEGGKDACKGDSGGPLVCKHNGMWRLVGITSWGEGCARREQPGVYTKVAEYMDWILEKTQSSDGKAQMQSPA
plasma kallikrein, sequence (P03952 20-390 partner): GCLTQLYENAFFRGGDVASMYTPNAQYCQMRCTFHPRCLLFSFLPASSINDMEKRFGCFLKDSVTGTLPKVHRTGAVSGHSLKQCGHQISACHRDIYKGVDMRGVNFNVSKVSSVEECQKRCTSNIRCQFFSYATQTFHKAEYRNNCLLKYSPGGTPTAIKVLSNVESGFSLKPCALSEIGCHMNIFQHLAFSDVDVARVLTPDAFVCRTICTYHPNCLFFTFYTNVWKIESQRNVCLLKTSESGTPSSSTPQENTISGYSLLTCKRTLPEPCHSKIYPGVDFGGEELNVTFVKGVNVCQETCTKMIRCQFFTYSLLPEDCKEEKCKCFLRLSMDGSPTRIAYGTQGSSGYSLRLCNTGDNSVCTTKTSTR
human t-PA, sequence (P00750 36-562): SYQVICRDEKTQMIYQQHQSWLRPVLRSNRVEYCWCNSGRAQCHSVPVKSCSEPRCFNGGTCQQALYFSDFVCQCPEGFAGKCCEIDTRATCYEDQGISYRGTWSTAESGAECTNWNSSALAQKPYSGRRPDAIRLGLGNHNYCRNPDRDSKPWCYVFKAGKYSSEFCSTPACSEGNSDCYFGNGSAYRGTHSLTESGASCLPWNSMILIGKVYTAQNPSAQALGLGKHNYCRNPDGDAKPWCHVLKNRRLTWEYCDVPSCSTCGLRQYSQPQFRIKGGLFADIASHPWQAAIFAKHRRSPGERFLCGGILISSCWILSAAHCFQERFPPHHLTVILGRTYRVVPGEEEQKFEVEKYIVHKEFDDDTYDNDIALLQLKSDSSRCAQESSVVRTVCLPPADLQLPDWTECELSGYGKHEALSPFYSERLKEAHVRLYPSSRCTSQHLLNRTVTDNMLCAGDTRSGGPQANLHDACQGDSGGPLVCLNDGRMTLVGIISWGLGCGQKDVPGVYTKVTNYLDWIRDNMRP
human Factor Xa, sequence (P00742 235-488): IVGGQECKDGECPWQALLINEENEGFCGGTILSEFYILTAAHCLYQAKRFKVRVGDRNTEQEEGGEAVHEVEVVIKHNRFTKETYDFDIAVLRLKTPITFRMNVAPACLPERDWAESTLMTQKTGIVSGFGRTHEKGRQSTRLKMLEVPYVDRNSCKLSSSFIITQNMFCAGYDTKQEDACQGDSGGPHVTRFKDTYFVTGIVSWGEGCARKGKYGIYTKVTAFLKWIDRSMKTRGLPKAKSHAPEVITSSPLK
human Factor Xa, sequence (P00742 41-179 partner): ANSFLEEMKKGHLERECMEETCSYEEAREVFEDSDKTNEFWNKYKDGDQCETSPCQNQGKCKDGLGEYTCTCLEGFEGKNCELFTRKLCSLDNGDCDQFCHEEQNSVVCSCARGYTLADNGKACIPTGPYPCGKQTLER

aprotinin: the Ki on trypsin was 0.1 nM. In addition, the “risk of anaphylactic shock” value is on record as less than 0.1% in series [1] (first administration) and 4-5% in series [1] (repeated administration within 200 days).
Take `N=C(N)c1ccc(CNC(=O)[C@H](CCC2CCNCC2)NC(=O)[C@@H](CCC2CCN(C(=O)C3CC3)CC2)NS(=O)(=O)Cc2ccccc2)cc1`: the Ki at plasmin [2] was 0.6 nM; at plasma kallikrein, 0.3 nM; in series [3], 1500 nM; at human urinary kallikrein, more than 50000 nM; in [4], 19000 nM; in [5], more than 50000 nM. The Ki was determined as 8500 nM at human alpha-thrombin; 2300 nM at human Factor Xa; 650 nM at human Factor XIa; 1100 nM on human alpha-FXIIa; 6100 nM at human t-PA.
Turning to `CC(=O)N1CCC(CCC[C@@H](NS(=O)(=O)Cc2ccccc2)C(=O)N[C@@H](CCC2CCNCC2)C(=O)NCc2ccc(C(=N)N)cc2)CC1`, the Ki at plasmin [2] is 1.5 nM; at plasma kallikrein, 2 nM; in series [3], 1100 nM; at human urinary kallikrein, more than 500000 nM; in series [4], 9000 nM; in series [5], more than 100000 nM. The Ki is 3800 nM at human alpha-thrombin; 750 nM on human Factor Xa; 870 nM on human Factor XIa; 630 nM at human alpha-FXIIa; 3000 nM on human t-PA.
As to `CN(C)C(=O)N1CCC(CC[C@@H](NS(=O)(=O)Cc2ccccc2)C(=O)N[C@@H](CCC2CCNCC2)C(=O)NCc2ccc(C(=N)N)cc2)CC1`, the Ki at plasmin [2] is 0.8 nM; on plasma kallikrein, 4 nM; in [3], 1600 nM; on human urinary kallikrein, more than 200000 nM; in series [4], 13000 nM; in series [5] it was more than 50000 nM. For the same molecule, the Ki was 13000 nM on human alpha-thrombin; 2500 nM on human Factor Xa; 1500 nM on human Factor XIa; 2000 nM on human alpha-FXIIa; 8300 nM on human t-PA.
`N=C(N)c1ccc(CNC(=O)[C@H](CCC2CCNCC2)NC(=O)[C@@H](CCCc2cc[n+]([O-])cc2)NS(=O)(=O)Cc2ccccc2)cc1` [drawing 123]: the Ki at plasmin [2] was 1 nM; on plasma kallikrein, 4 nM; in [3], 850 nM; on human urinary kallikrein it was more than 200000 nM; in [4], 9500 nM; in series [5], more than 30000 nM. For the same molecule, the Ki came to 4900 nM at human alpha-thrombin; 400 nM at human Factor Xa; 1400 nM on human Factor XIa; 870 nM at human alpha-FXIIa; 2400 nM on human t-PA.
With `N=C(N)c1ccc(CNC(=O)[C@H](CCC2CCNCC2)NC(=O)[C@@H](CCCc2ccncc2)NS(=O)(=O)Cc2ccccc2)cc1`, the Ki on plasmin [2] is 0.4 nM; at plasma kallikrein, 2.7 nM; in series [3], 600 nM; on human urinary kallikrein, more than 80000 nM; in series [4], 4950 nM; in series [5] it was more than 50000 nM. The Ki at human alpha-thrombin is 1200 nM; on human Factor Xa, 850 nM; on human Factor XIa it was 500 nM; on human alpha-FXIIa, 1500 nM; at human t-PA, 2300 nM.
Regarding `CNC(=O)N1CCC(CC[C@@H](NS(=O)(=O)Cc2ccccc2)C(=O)N[C@@H](CCC2CCNCC2)C(=O)NCc2ccc(C(=N)N)cc2)CC1`, the Ki on plasmin [2] is 1 nM; at plasma kallikrein, 2 nM; in series [3], 1100 nM; on human urinary kallikrein, more than 200000 nM; in series [4], more than 20000 nM; in [5], more than 20000 nM. Besides, the Ki came out at 4800 nM at human alpha-thrombin; 1700 nM at human Factor Xa; 1300 nM at human Factor XIa; 550 nM on human alpha-FXIIa; 5300 nM on human t-PA.
`CCC(=O)N1CCC(CC[C@@H](NS(=O)(=O)Cc2ccccc2)C(=O)N[C@@H](CCC2CCNCC2)C(=O)NCc2ccc(C(=N)N)cc2)CC1`: the Ki on plasmin [2] was 0.8 nM; on plasma kallikrein, 0.9 nM; in [3] it was 1200 nM; on human urinary kallikrein, more than 60000 nM; in [4] it was more than 25000 nM; in [5], more than 35000 nM. The Ki amounted to 5600 nM on human alpha-thrombin; 2300 nM on human Factor Xa; 720 nM at human Factor XIa; 650 nM at human alpha-FXIIa; 5100 nM at human t-PA.
Turning to `COC(=O)N1CCC(CC[C@@H](NS(=O)(=O)Cc2ccccc2)C(=O)N[C@@H](CCC2CCNCC2)C(=O)NCc2ccc(C(=N)N)cc2)CC1`, the Ki on plasmin [2] was 0.7 nM; at plasma kallikrein, 2 nM; in [3] it was 1350 nM; at human urinary kallikrein it was more than 200000 nM; in [4], more than 10000 nM; in series [5], more than 20000 nM. The Ki came out at 13000 nM on human alpha-thrombin; 2000 nM at human Factor Xa; 720 nM at human Factor XIa; 1600 nM on human alpha-FXIIa; 6600 nM on human t-PA.
For `N=C(N)c1ccc(CNC(=O)[C@@H]2CCN2C(=O)[C@H](NCC(=O)O)C2CCCCC2)cc1` [melagatran], the Ki on plasmin [6] was 700 nM.
On to `COC(=O)c1cccc(CS(=O)(=O)N[C@H](CCCc2ccccc2)C(=O)N[C@@H](CCC2CCNCC2)C(=O)NCc2ccc(C(=N)N)cc2)c1`, for which the Ki at plasmin [2] was 2.7 nM; on plasma kallikrein, 9.4 nM; in series [3], 570 nM; on human urinary kallikrein, more than 20000 nM; in [4], 4800 nM; in series [5], more than 30000 nM. For the same molecule, the Ki was 920 nM on human alpha-thrombin; 5900 nM at human Factor Xa; 500 nM on human Factor XIa; more than 10000 nM on human alpha-FXIIa; 3900 nM at human t-PA.
